Measurements reported in PubChem BioAssay AID1259407 (Chemical Carcinogenesis Research Information System (CCRIS), 2018).
Active and inactive are the calls of the source. The rule behind the calls is not given here.

Test system: CCRIS mutagenicity, Ames/micronucleus/aberration tests
Test: CCRIS mutagenicity studies
[1] = Test System: AMES SALMONELLA TYPHIMURIUM, Strain/Indicator: TA1535, Metabolic Activation: NONE, Method: STANDARD PLATE
[2] = Test System: AMES SALMONELLA TYPHIMURIUM, Strain/Indicator: TA100, Metabolic Activation: NONE, Method: STANDARD PLATE
[3] = Test System: AMES SALMONELLA TYPHIMURIUM, Strain/Indicator: TA98, Metabolic Activation: RAT, LIVER, S-9, AROCLOR 1254, Method: STANDARD PLATE
[4] = Test System: MOUSE LYMPHOMA, Strain/Indicator: L5178Y (TK+/TK-), Metabolic Activation: NONE, Method: SUSPENSION/PLATE

For `CC(=O)c1ccccc1[N+](=O)[O-]`, the mutagenic call (Test System: AMES SALMONELLA TYPHIMURIUM, Strain/Indicator: TA98, Metabolic Activation: HAMSTER, LIVER, S-9, AROCLOR 1254 (10%), Method: PREINCUBATION) was “inactive; negative”, the mutagenic call (Test System: AMES SALMONELLA TYPHIMURIUM, Strain/Indicator: TA98, Metabolic Activation: NONE, Method: PREINCUBATION) was “inactive; negative” and the mutagenic call (Test System: AMES SALMONELLA TYPHIMURIUM, Strain/Indicator: TA98, Metabolic Activation: RAT, LIVER, S-9, AROCLOR 1254 (10%), Method: PREINCUBATION) was “inactive; negative”. The mutagenic call (Test System: AMES SALMONELLA TYPHIMURIUM, Strain/Indicator: TA98, Method: PREINCUBATION) was “inactive; negative”, the mutagenic call (Test System: AMES SALMONELLA TYPHIMURIUM, Strain/Indicator: TA100, Metabolic Activation: HAMSTER, LIVER, S-9, AROCLOR 1254 (10%), Method: PREINCUBATION) was “inactive; negative” and the mutagenic call (Test System: AMES SALMONELLA TYPHIMURIUM, Strain/Indicator: TA100, Metabolic Activation: NONE, Method: PREINCUBATION) was “inactive; negative”. The mutagenic call (Test System: AMES SALMONELLA TYPHIMURIUM, Strain/Indicator: TA100, Metabolic Activation: RAT, LIVER, S-9, AROCLOR 1254 (10%), Method: PREINCUBATION) was “inactive; negative”, the mutagenic call (Test System: AMES SALMONELLA TYPHIMURIUM, Strain/Indicator: TA100, Method: PREINCUBATION) was “inactive; negative” and the mutagenic call (Test System: AMES SALMONELLA TYPHIMURIUM, Strain/Indicator: TA1535, Metabolic Activation: HAMSTER, LIVER, S-9, AROCLOR 1254 (10%), Method: PREINCUBATION) was “inactive; negative”. For the same compound, the mutagenic call (Test System: AMES SALMONELLA TYPHIMURIUM, Strain/Indicator: TA1535, Metabolic Activation: NONE, Method: PREINCUBATION) was “inactive; negative”, the mutagenic call (Test System: AMES SALMONELLA TYPHIMURIUM, Strain/Indicator: TA1535, Metabolic Activation: RAT, LIVER, S-9, AROCLOR 1254 (10%), Method: PREINCUBATION) was “inactive; negative” and the mutagenic call (Test System: AMES SALMONELLA TYPHIMURIUM, Strain/Indicator: TA1535, Method: PREINCUBATION) was “inactive; negative”. For the same compound, the mutagenic call (Test System: AMES SALMONELLA TYPHIMURIUM, Strain/Indicator: TA1537, Metabolic Activation: HAMSTER, LIVER, S-9, AROCLOR 1254 (10%), Method: PREINCUBATION) was “inactive; negative”, the mutagenic call (Test System: AMES SALMONELLA TYPHIMURIUM, Strain/Indicator: TA1537, Metabolic Activation: NONE, Method: PREINCUBATION) was “inactive; negative” and the mutagenic call (Test System: AMES SALMONELLA TYPHIMURIUM, Strain/Indicator: TA1537, Metabolic Activation: RAT, LIVER, S-9, AROCLOR 1254 (10%), Method: PREINCUBATION) was “inactive; negative”. For the same compound, the mutagenic call (Test System: AMES SALMONELLA TYPHIMURIUM, Strain/Indicator: TA1537, Method: PREINCUBATION) was “inactive; negative”, the mutagenic call (Test System: AMES SALMONELLA TYPHIMURIUM, Strain/Indicator: TA1538, Metabolic Activation: NONE, Method: PREINCUBATION) was “inactive; negative” and the mutagenic call (Test System: AMES SALMONELLA TYPHIMURIUM, Strain/Indicator: TA1538, Method: PREINCUBATION) was “inactive; negative”.

In the case of `[N-]=[N+]=NC[C@@H](O)[C@H](O)[C@H](O)[C@@H](O)CO`, the mutagenic call [1] is reported as “active; positive”.

For `Cn1c(N)nc2ccccc21`, the mutagenic call (Test System: AMES SALMONELLA TYPHIMURIUM, Strain/Indicator: TA98, Metabolic Activation: RAT, LIVER, S-9, AROCLOR 1254, Method: PREINCUBATION) was “active; positive” and the mutagenic call (Test System: AMES SALMONELLA TYPHIMURIUM, Strain/Indicator: TA100, Metabolic Activation: RAT, LIVER, S-9, AROCLOR 1254, Method: PREINCUBATION) was “active; positive”.

In the case of `CCCCOc1ccc(N=O)cc1`, the mutagenic call [2] is reported as “active; positive”.

`Cc1c2ccncc2c(C)c2c1[nH]c1ccccc12` was tested, and the mutagenic call [3] was “active; positive”, the mutagenic call (Test System: AMES SALMONELLA TYPHIMURIUM, Strain/Indicator: TA102, Metabolic Activation: NONE, Method: STANDARD PLATE) was “active; positive” and the mutagenic call (Test System: CHINESE HAMSTER V-79, Strain/Indicator: V-79 (HPRT)/6-THIOGUANINE, Metabolic Activation: NONE) was “inactive; negative”. The mutagenic call (Test System: E. COLI, Strain/Indicator: WP2 TM9, Metabolic Activation: NONE, Method: STANDARD PLATE) was “inactive; negative”, the mutagenic call (Test System: MOUSE LYMPHOMA, Strain/Indicator: L5178Y (HPRT)/6-THIOGUANINE, Metabolic Activation: NONE, Method: FLUCTUATION TEST) was “inactive; negative” and the mutagenic call (Test System: MOUSE LYMPHOMA, Strain/Indicator: L5178Y (TK+/TK-), Metabolic Activation: NONE, Method: FLUCTUATION TEST) was “active; positive”. For the same compound, the mutagenic call [4] was “active; positive”, the mutagenic call (Test System: Mouse lymphoma, Strain/Indicator: L5178Y (tk+/tk-), Metabolic Activation: None, Method: Suspension/plate) was “active; positive” and the mutagenic call (Test System: Mouse lymphoma, Strain/Indicator: L5178Y (tk+/tk-), Metabolic Activation: Rat, Liver, S-9, Aroclor 1254, Method: Suspension/plate) was “active; positive”.

With `CCCO` the mutagenic call (Test System: AMES SALMONELLA TYPHIMURIUM, Strain/Indicator: TA98, Metabolic Activation: HAMSTER, LIVER, S-9, AROCLOR 1254, Method: STANDARD PLATE) was “inactive; negative”, the mutagenic call (Test System: AMES SALMONELLA TYPHIMURIUM, Strain/Indicator: TA98, Metabolic Activation: NONE, Method: STANDARD PLATE) was “inactive; negative” and the mutagenic call [3] was “inactive; negative”. For the same compound, the mutagenic call (Test System: AMES SALMONELLA TYPHIMURIUM, Strain/Indicator: TA100, Metabolic Activation: HAMSTER, LIVER, S-9, AROCLOR 1254, Method: STANDARD PLATE) was “inactive; negative”, the mutagenic call [2] was “inactive; negative” and the mutagenic call (Test System: AMES SALMONELLA TYPHIMURIUM, Strain/Indicator: TA100, Metabolic Activation: RAT, LIVER, S-9, AROCLOR 1254, Method: STANDARD PLATE) was “inactive; negative”. For the same compound, the mutagenic call (Test System: AMES SALMONELLA TYPHIMURIUM, Strain/Indicator: TA1535, Metabolic Activation: HAMSTER, LIVER, S-9, AROCLOR 1254, Method: STANDARD PLATE) was “inactive; negative”, the mutagenic call [1] was “inactive; negative” and the mutagenic call (Test System: AMES SALMONELLA TYPHIMURIUM, Strain/Indicator: TA1535, Metabolic Activation: RAT, LIVER, S-9, AROCLOR 1254, Method: STANDARD PLATE) was “inactive; negative”. The mutagenic call (Test System: AMES SALMONELLA TYPHIMURIUM, Strain/Indicator: TA1537, Metabolic Activation: HAMSTER, LIVER, S-9, AROCLOR 1254, Method: STANDARD PLATE) was “inactive; negative”, the mutagenic call (Test System: AMES SALMONELLA TYPHIMURIUM, Strain/Indicator: TA1537, Metabolic Activation: NONE, Method: STANDARD PLATE) was “inactive; negative” and the mutagenic call (Test System: AMES SALMONELLA TYPHIMURIUM, Strain/Indicator: TA1537, Metabolic Activation: RAT, LIVER, S-9, AROCLOR 1254, Method: STANDARD PLATE) was “inactive; negative”. For the same compound, the mutagenic call (Test System: AMES SALMONELLA TYPHIMURIUM, Strain/Indicator: TA1538, Metabolic Activation: HAMSTER, LIVER, S-9, AROCLOR 1254, Method: STANDARD PLATE) was “inactive; negative”, the mutagenic call (Test System: AMES SALMONELLA TYPHIMURIUM, Strain/Indicator: TA1538, Metabolic Activation: NONE, Method: STANDARD PLATE) was “inactive; negative” and the mutagenic call (Test System: AMES SALMONELLA TYPHIMURIUM, Strain/Indicator: TA1538, Metabolic Activation: RAT, LIVER, S-9, AROCLOR 1254, Method: STANDARD PLATE) was “inactive; negative”. The mutagenic call [4] was “inactive; negative” and the mutagenic call (Test System: MOUSE LYMPHOMA, Strain/Indicator: L5178Y (TK+/TK-), Metabolic Activation: RAT, LIVER, S-9, AROCLOR 1254, Method: SUSPENSION/PLATE) was “inactive; negative”.

`Nc1nc2ncc(CNc3ccc(C(=O)N[C@@H](CCC(=O)O)C(=O)O)cc3)nc2c(=O)[nH]1` was tested, and the mutagenic call (Test System: AMES SALMONELLA TYPHIMURIUM, Strain/Indicator: TA97A, Metabolic Activation: NONE, Method: PREINCUBATION) was “inactive; negative”, the mutagenic call (Test System: AMES SALMONELLA TYPHIMURIUM, Strain/Indicator: TA97A, Metabolic Activation: RAT, LIVER, S-9, AROCLOR 1254, Method: PREINCUBATION) was “inactive; negative” and the mutagenic call (Test System: AMES SALMONELLA TYPHIMURIUM, Strain/Indicator: TA102, Metabolic Activation: NONE, Method: PREINCUBATION) was “inactive; negative”. For the same compound, the mutagenic call (Test System: AMES SALMONELLA TYPHIMURIUM, Strain/Indicator: TA102, Metabolic Activation: RAT, LIVER, S-9, AROCLOR 1254, Method: PREINCUBATION) was “inactive; negative”.
